# Patent publication US10618885B2, “Compounds that activate autophagy” (Macau University of Science and Technology, priority 2018, dated 2020)
# Read-outs that look alike come from different tables or passages of the source.
# What was measured:
# Type in all cases: cell-based
# [1] = system: LC3 conversion (LC3-I to LC3-II) in HeLa cells; assay: Western blot for autophagic marker LC3 conversion in HeLa cells; conditions: 24 hours, three concentrations, normalised to β-actin
# Protocol: After drug treatment, adherent and floating cells were lysed with RIPA lysis buffer. Protein concentrations were determined using the Bio-Rad protein assay (Bio-Rad Laboratories, Inc., Hercules, Calif., USA). The cell lysates of samples were subjected to electrophoresis on SDS polyacrylamide gels and transferred to Hybond enhanced chemiluminescence nitrocellulose membranes (Amersham Biosciences, Piscataway, N.J.), which were then blocked with 5% non-fat dry milk protein for 1 hour. Membranes were then incubated with the indicated primary antibodies overnight at 4° C. The binding of the antibody was visualized by peroxidase-coupled secondary antibody using the ECL (enhanced chemiluminescence) Western Blotting Detection Reagents (Invitrogen, Paisley, Scotland, UK). Band intensities were quantified by using the software ImageJ (NIH, Bethesda, Md., USA).
# The presence of the autophagy marker protein, LC3-II was determined in HeLa cells by western blot analysis. HeLa cancer cells were treated with dauricine (Dau) or compounds 2a-4b with three indicated concentrations for 24 hours. Cell lysates were analyzed by Western blot for LC3 conversion ([…]) and β-actin. The western blot was shown in FIGS. 4A, 4C, 4E, 4G, 4I, 4K, and 4M. LC3-II band intensities were quantified using densitometric analysis and normalised to β-actin. The results were shown in FIGS. 4B, 4D, 4F, 4H, 4J, 4L and 4N. Data are expressed as a fold change relative to the DMSO-treated negative control. Bars are representatives of three independent experiments. Error bars, SEM. *, P<0.05; **, P<0.01; ***, P<0.001.
# HeLa cancer cells = assay: MTT cytotoxicity assay in HeLa cancer cells
# Protocol: All test compounds were dissolved in DMSO (Dimethyl sulfoxide) at final concentrations of 50 mmol/L and stored at −20° C. before use. Cytotoxicity was assessed using the 3-(4, 5-dimethylthiazol-2-yl)-2, 5-diphenyltetrazolium bromide (MTT) (5.0 mg/ml) assay. Briefly, 4×10^3 cells were seeded per well in 96-well plates before drug treatment. After overnight culture, the cells were then exposed to different concentrations of test compounds (0.039-100 μmol/L) for 72 hours. Cells without drug treatment were used as control. Subsequently, MTT (10 μL) was added to each well and incubated at 37° C. for 4 hours followed by the addition of 100 μL solubilization buffer (10% SDS (Sodium dodecyl sulfate) in 0.01 mol/L HCl) and overnight incubation. A570 nm was determined from each well on the next day. The percentage of cell viability was calculated using the following formula: Cell viability (%)=Atreated/Acontrol×100. Data were obtained from triplication independent experiments.
# FIG. 1 is a graph 100 showing cell viability of HeLa cells treated with dauricine, N-desmethyldauricine, and compounds 2a-4b. HeLa cancer cells in 96 well-plates were treated with 0 to 20 μM of dauricine (Dau), N-desmethyldauricine (NDau) and dauricine derivatives (2a-4b) for 72 hours. Cell cytotoxicity was then assessed using the 3-(4, 5-dimethylthiazol-2-yl)-2, 5-diphenyltetrazolium bromide (MTT) (5.0 mg/ml) assay. The IC50 values shown in FIG. 1 are mean values of three independent experiments.
# HeLa cells = assay: Annexin V cell death analysis by flow cytometry, with or without wortmannin; conditions: 24 hours; for compound-mediated cell death on blocking of autophagy by wortmannin: 5 μM compound plus 1 μM wortmannin; for percentage of cell death: 5 μM compound, annexin V staining, without wortmannin
# Protocol: Apoptosis was detected by Annexin V staining kit (BD Biosciences, San Jose, Calif., USA). In brief, cells were exposed to the indicated concentrations of […] for 24 hours. Cells were then harvested and analyzed by flow cytometry using FITC-Annexin V and Propidium Iodide staining according to the manufacturer's instructions. Apoptotic cells were quantitatively counted by a flow cytometer (BD FACSAria III, San Jose, Calif., USA). Data acquisition and analysis were performed with CellQuest (BD Biosciences, San Jose, Calif., USA) from triple independent experiments.
# To investigate whether the autophagy induced by compounds 2a, 2b, 3a, and 4a contributes to cell death, Annexin V cell death analysis was conducted. HeLa cells treated with these compounds (5 μM) in the presence or absence of 1 μM of wortmannin for 24 hours were assayed by flow cytometry after annexin V staining. Bar charts of FIGS. 5C and 5E represent the quantitation of cell death (%).
# [2] = system: GFP-LC3 stable HeLa cells; assay: Autophagy LC3 puncta detection in GFP-LC3 stable HeLa cells; conditions: 24 hours; for formation of GFP-LC3 puncta (fluorescence images): compared with untreated cells; for percentage of cells with GFP-LC3 puncta (dose dependence): three concentrations
# Protocol: The detection of LC3 autophagic puncta was conducted using GFP-LC3 stable HeLa cancer cells as described below. In brief, compounds-treated GFP-LC3-HeLa cells on cover slips were fixed with 4% paraformaldehyde (Sigma) for 20 min at room temperature and then rinsed with PBS (phosphate-buffered saline). The coverslips were then mounted with FLUORSAVE™ mounting media (Calbiochem, San Diego, Calif., USA) for fluorescence imaging and the localization of LC3 autophagosomes were captured under the API Delta Vision Live-cell Imaging System (Applied Precision Inc., GE Healthcare Company, Washington, USA). To quantify autophagy, guidelines were followed to monitor autophagy, the percentage of cells with punctuate LC3 immunofluorescence staining was calculated by counting the number of the cells showing the increased punctuate pattern of LC3 fluorescence (≥10 dots/cell) in immunofluorescence-positive cells over the total number of cells in the same field. A minimum of 1000 cells from randomly selected fields were scored.
# FIG. 2A-3H show identification of compounds 2a-4b with autophagic activities. GFP-LC3 puncta in compound-treated GFP-LC3-HeLa cells were detected. GFP-LC3 stable HeLa cells were treated with DMSO (−ve Ctrl) or the indicated concentrations of dauricine (Dau), N-desmethyldauricine (NDau) and dauricine derivatives (2a-4b) for 24 hours. Representative fluorescence images from the highest tested concentration of compound captured at 60× magnification were shown; scale bar, 15 μm. Bar charts represent the quantitation of autophagic cells. The percentages of autophagic cells were calculated as the number of cells with GFP-LC3 puncta (≥10 puncta/cell) divided by the total number of GFP-positive cells in the same field.
# [3] = HeLa cancer cells, 72 hours, MTT, mean of three independent experiments, read-out: IC50 (cytotoxicity)
structure (smiles),measurement,setting,value
COc1cc2c(cc1OC)C(Cc1ccc(Oc3cc(CC4c5cc(OC)c(OC)cc5CCN4C)ccc3OC(=O)N(C)OC)cc1)N(C)CC2 (centres unmarked) [Compound 2f],conversion of LC3-I to LC3-II (fold change relative to DMSO control),[1],increased the conversion of LC3-I to LC3-II in a dose dependent manner
COc1cc2c(cc1OC)C(Cc1ccc(Oc3cc(CC4c5cc(OC)c(OC)cc5CCN4C)ccc3OC(=O)c3ccccc3)cc1)N(C)CC2 (centres unmarked) [Compound 3a],conversion of LC3-I to LC3-II (fold change relative to DMSO control),[1],increased the conversion of LC3-I to LC3-II in a dose dependent manner
same,IC50,HeLa cancer cells; [3],6.44 µM
same,compound-mediated cell death on blocking of autophagy by wortmannin,HeLa cells,significantly inhibited
same,percentage of cell death,HeLa cells,markedly increased the percentage of cell death
COc1cc2c(cc1OC)C(Cc1ccc(Oc3cc(CC4c5cc(OC)c(OC)cc5CCN4C)ccc3OC(=O)N(C)c3ccccc3)cc1)N(C)CC2 (centres unmarked) [Compound 2b],conversion of LC3-I to LC3-II (fold change relative to DMSO control),[1],increased the conversion of LC3-I to LC3-II in a dose dependent manner
same,IC50,HeLa cancer cells; [3],6.72 µM
same,compound-mediated cell death on blocking of autophagy by wortmannin,HeLa cells,significantly inhibited
same,percentage of cell death,HeLa cells,markedly increased the percentage of cell death
COc1cc2c(cc1OC)C(Cc1ccc(Oc3cc(CC4c5cc(OC)c(OC)cc5CCN4C)ccc3OC(=O)N3CCOCC3)cc1)N(C)CC2 (centres unmarked) [Compound 2g],conversion of LC3-I to LC3-II (fold change relative to DMSO control),[1],increased the conversion of LC3-I to LC3-II in a dose dependent manner
COc1cc2c(cc1OC)C(Cc1ccc(Oc3cc(CC4c5cc(OC)c(OC)cc5CCN4C)ccc3OC(=O)c3ccco3)cc1)N(C)CC2 (centres unmarked) [Compound 3b],conversion of LC3-I to LC3-II (fold change relative to DMSO control),[1],increased the conversion of LC3-I to LC3-II in a dose dependent manner
COc1cc2c(cc1OC)C(Cc1ccc(Oc3cc(CC4c5cc(OC)c(OC)cc5CCN4C)ccc3OS(=O)(=O)c3ccc(C)cc3)cc1)N(C)CC2 (centres unmarked) [Compound 4a],conversion of LC3-I to LC3-II (fold change relative to DMSO control),[1],increased the conversion of LC3-I to LC3-II in a dose dependent manner
same,IC50,HeLa cancer cells; [3],6.1 µM
same,compound-mediated cell death on blocking of autophagy by wortmannin,HeLa cells,significantly inhibited
same,percentage of cell death,HeLa cells,markedly increased the percentage of cell death
CCN(C)C(=O)Oc1ccc(CC2c3cc(OC)c(OC)cc3CCN2C)cc1Oc1ccc(CC2c3cc(OC)c(OC)cc3CCN2C)cc1 (centres unmarked) [Compound 2d],conversion of LC3-I to LC3-II (fold change relative to DMSO control),[1],increased the conversion of LC3-I to LC3-II in a dose dependent manner
"COc1cc2c(cc1OC)[C@@H](Cc1ccc(Oc3cc(C[C@H]4NCCc5cc(OC)c(OC)cc54)ccc3O)cc1)N(C)CC2 [N-desmethyldauricine, reference compound]",conversion of LC3-I to LC3-II (fold change relative to DMSO control),[1],increased the conversion of LC3-I to LC3-II in a dose-dependent manner
same,IC50,HeLa cancer cells,15.8 µM
same,formation of GFP-LC3 puncta (fluorescence images),[2],increased formation of GFP-LC3 puncta
same,percentage of cells with GFP-LC3 puncta (dose dependence),[2],induced autophagic puncta in HeLa cells in a dose-dependent manner
"COc1cc2c(cc1OC)[C@@H](Cc1ccc(Oc3cc(C[C@@H]4c5cc(OC)c(OC)cc5CCN4C)ccc3O)cc1)N(C)CC2 [dauricine, reference compound]",conversion of LC3-I to LC3-II (fold change relative to DMSO control),[1],increased the conversion of LC3-I to LC3-II in a dose-dependent manner
same,IC50,"HeLa cancer cells; Homo sapiens, HeLa, 72 h, read-out: IC50 (cytotoxicity)",15.5 µM
same,formation of GFP-LC3 puncta (fluorescence images),[2],increased formation of GFP-LC3 puncta
same,percentage of cells with GFP-LC3 puncta (dose dependence),[2],induced autophagic puncta in HeLa cells in a dose-dependent manner
"COC[C@H]1OC(=O)c2coc3c2[C@@]1(C)C1=C(C3=O)[C@@H]2CCC(=O)[C@@]2(C)C[C@H]1OC(C)=O [wortmannin, reference compound]",cytotoxic effect of wortmannin alone,HeLa cells; wortmannin alone (1 μM),no cytotoxic effect
COc1cc2c(cc1OC)C(Cc1ccc(Oc3cc(CC4c5cc(OC)c(OC)cc5CCN4C)ccc3OC(=O)N(c3ccccc3)c3ccccc3)cc1)N(C)CC2 (centres unmarked) [Compound 2a],conversion of LC3-I to LC3-II (fold change relative to DMSO control),[1],increased the conversion of LC3-I to LC3-II in a dose dependent manner
same,IC50,HeLa cancer cells; [3],5.44 µM
same,compound-mediated cell death on blocking of autophagy by wortmannin,HeLa cells,significantly inhibited
same,percentage of cell death,HeLa cells,markedly increased the percentage of cell death
COc1cc2c(cc1OC)C(Cc1ccc(Oc3cc(CC4c5cc(OC)c(OC)cc5CCN4C)ccc3OC(=O)N(C)C)cc1)N(C)CC2 (centres unmarked) [Compound 2c],conversion of LC3-I to LC3-II (fold change relative to DMSO control),[1],increased the conversion of LC3-I to LC3-II in a dose dependent manner
COc1cc2c(cc1OC)C(Cc1ccc(Oc3cc(CC4c5cc(OC)c(OC)cc5CCN4C)ccc3OS(C)(=O)=O)cc1)N(C)CC2 (centres unmarked) [Compound 4b],conversion of LC3-I to LC3-II (fold change relative to DMSO control),[1],increased the conversion of LC3-I to LC3-II in a dose dependent manner
CCN(CC)C(=O)Oc1ccc(CC2c3cc(OC)c(OC)cc3CCN2C)cc1Oc1ccc(CC2c3cc(OC)c(OC)cc3CCN2C)cc1 (centres unmarked) [Compound 2e],conversion of LC3-I to LC3-II (fold change relative to DMSO control),[1],increased the conversion of LC3-I to LC3-II in a dose dependent manner
